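Results reflect a 48-hour exposure of cells in 96-well plates to compound at five concentrations. GI50 marks 50% less growth. TGI is the concentration that stops growth completely.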 Some results are limits rather than exact numbers.

One assay deals with NCI-H23 lung. Description: NCI anticancer screen, dose series, 48 h.
In turn, `CC[C@]1(Cc2ccc(OC)c(OC)c2)CN(S(=O)(=O)c2ccc(C)cc2)C[C@@H]1OC(C)=O` showed a TGI of more than 100 µM.

For the compound `CC(C)(C)c1ccc2c(c1)CNCCNCc1cc(C(C)(C)C)ccc1OCC1(CO2)COc2ccc(C(C)(C)C)cc2CNCCNCc2cc(C(C)(C)C)ccc2OC1`, the TGI was found to be 2.59 µM.

Compound `NCC1CCN(c2nc3ccccc3c3c2CCCC3)CC1` came in with a TGI of 30.1 µM.

For `CCN(CC)CCc1c2c(nc3ccccc13)C(=O)c1cccnc1C2=O`, the TGI came out at 8.53 µM.

For `Cc1c(F)c(N)c2c(=O)cc(-c3ccc(NC(=O)CN(C)C)c(F)c3)oc2c1F`, the TGI is more than 100 µM.

Regarding `COc1ccccc1Nc1nc(N)nc(N)c1N=O`, the TGI is more than 100 µM.

Consider `COc1cccc2c(N)c3cccc(C(=O)NCCN(C)C)c3nc12`, for which the TGI amounted to 1.02 µM.

The compound `O=C(CCCCCCCCC(=O)NN1C(=O)/C(=C\c2ccc(O)c(O)c2)SC1c1ccc(Cl)cc1)NN1C(=O)/C(=C\c2ccc(O)c(O)c2)SC1c1ccc(Cl)cc1` (stereo not drawn) yielded a TGI of 41.8 µM.

Take `O=C1/C(=C/c2ccccc2)N=C(c2ccccc2)N1n1c(-c2ccccc2)nc2ccccc2c1=O`: the TGI is more than 100 µM.

The compound `Oc1ccc(/C=C/c2cc(O)cc(O)c2)cc1` returned a TGI of more than 100 µM.

`O=C(O)c1c2c(cc3c1CC1(Cc4ccccc4C1)C3)CCC2` showed a TGI of more than 100 µM.

Turning to `Cc1nc(-c2ccc([N+](=O)[O-])cc2)cn2c1nc1ccccc12`, the TGI is more than 100 µM.

Compound `Cc1nnc2n1N=C(c1cc(F)c(Cl)cc1Cl)/C(=C/c1ccc(Cl)cc1)S2` showed a TGI of 48.8 µM.

With `CC(O[Si](c1ccccc1)(c1ccccc1)C(C)(C)C)[C@H](NC(=O)OC(C)(C)C)C(=O)O[Si](c1ccccc1)(c1ccccc1)C(C)(C)C` (stereo partly drawn), the TGI was 26.1 µM.

Regarding `CCCCN1C(=O)CC2[C@@H]3CCc4cc(OC(C)=O)ccc4C3CC[C@]2(C)C1=O` (stereo partly drawn), the TGI was more than 10 µM.

A further assay deals with NCI/ADR-RES ovarian. Description: NCI anticancer screen, dose series, 48 h.
On to `COc1ccc(C2CC(c3c(O)ccc4ccccc34)=NN2c2ccc([N+](=O)[O-])cc2[N+](=O)[O-])cc1OC` (stereo not drawn), for which the TGI was 17.4 µM.

Compound `C=C1CC(COc2cc(=O)oc3ccccc23)(c2ccccc2)OC1=O` (stereo not drawn) gave a TGI of 25.1 µM.

The compound `O=C(O)CSc1nnc(COc2ccc(Cl)cc2)n1-c1ccccc1` came in with a TGI of more than 100 µM.

In the case of `CN(C)CCCOc1nc2c(c(=O)n(C)c(=O)n2C)n1C` (tested in a mixture with another compound), the TGI was more than 100 µM.

Consider `C[N+]1=C2[B-](C(C)(C)C)=[N+](C(C)(C)C)[B-]2(C(C)(C)C)[N+](C)=C2[B-](C(C)(C)C)=[N+](C(C)(C)C)[B-]21C(C)(C)C` (stereo not drawn), for which the TGI was more than 100 µM.

With `Brc1ccc(CCNCCN2CCCCC2)cc1`, the TGI was determined as 59.5 µM.

As for `OC1C2[C@@H](O)CCCN2C[C@@H](O)[C@H]1O` (stereo partly drawn), the TGI was more than 100 µM.

Compound `COCOC1/C=C/CCCC#C[C@H](C)C(=O)CC1` (stereo partly drawn) had a TGI of 29 µM.

In the case of `COc1ccc2[nH]c(O)c(/C=c3/cc4c(c(-c5cc(OC)c(OC)c(OC)c5)n3)=Nc3ccccc3-4)c2c1`, the GI50 was 3.3 µM and the TGI was more than 100 µM.

Consider `CC[C@]1(Cc2ccc(OC)c(OC)c2)CN(S(=O)(=O)c2ccc(C)cc2)C[C@@H]1OC(C)=O`, for which the TGI is more than 100 µM.

Compound `CC(C)(C)c1ccc2c(c1)CNCCNCc1cc(C(C)(C)C)ccc1OCC1(CO2)COc2ccc(C(C)(C)C)cc2CNCCNCc2cc(C(C)(C)C)ccc2OC1` registered a TGI of 3.07 µM.

`NCC1CCN(c2nc3ccccc3c3c2CCCC3)CC1` came in with a TGI of 32.3 µM.

`CCN(CC)CCc1c2c(nc3ccccc13)C(=O)c1cccnc1C2=O` registered a TGI of more than 100 µM.

The compound `Cc1c(F)c(N)c2c(=O)cc(-c3ccc(NC(=O)CN(C)C)c(F)c3)oc2c1F` showed a TGI of more than 100 µM.

The compound `COc1ccccc1Nc1nc(N)nc(N)c1N=O` showed a TGI of more than 100 µM.

On to `COc1cccc2c(N)c3cccc(C(=O)NCCN(C)C)c3nc12`, for which the TGI was found to be 12.4 µM.

As for `O=C(CCCCCCCCC(=O)NN1C(=O)/C(=C\c2ccc(O)c(O)c2)SC1c1ccc(Cl)cc1)NN1C(=O)/C(=C\c2ccc(O)c(O)c2)SC1c1ccc(Cl)cc1` (stereo not drawn), the TGI is more than 100 µM.

Regarding `O=C1/C(=C/c2ccccc2)N=C(c2ccccc2)N1n1c(-c2ccccc2)nc2ccccc2c1=O`, the TGI is more than 100 µM.

`Oc1ccc(/C=C/c2cc(O)cc(O)c2)cc1` registered a TGI of more than 100 µM.

Consider `O=C(O)c1c2c(cc3c1CC1(Cc4ccccc4C1)C3)CCC2`, for which the TGI is more than 100 µM.

`Cc1nc(-c2ccc([N+](=O)[O-])cc2)cn2c1nc1ccccc12` gave a TGI of more than 100 µM.

`Cc1nnc2n1N=C(c1cc(F)c(Cl)cc1Cl)/C(=C/c1ccc(Cl)cc1)S2` showed a TGI of 34.2 µM.

As for `CC(O[Si](c1ccccc1)(c1ccccc1)C(C)(C)C)[C@H](NC(=O)OC(C)(C)C)C(=O)O[Si](c1ccccc1)(c1ccccc1)C(C)(C)C` (stereo partly drawn), the TGI was 29 µM.

The compound `COc1ccc(-c2cc(-c3ccco3)c(C#N)c(=S)n2C2OC(COC(C)=O)C(OC(C)=O)C(OC(C)=O)C2OC(C)=O)cc1` (stereo not drawn) came in with a TGI of 37.7 µM.

With `CCCCN1C(=O)CC2[C@@H]3CCc4cc(OC(C)=O)ccc4C3CC[C@]2(C)C1=O` (stereo partly drawn), the TGI was more than 10 µM.

The test system of another assay is OVCAR-4 ovarian. Description: NCI anticancer screen, dose series, 48 h.
On to `COc1ccc(C2CC(c3c(O)ccc4ccccc34)=NN2c2ccc([N+](=O)[O-])cc2[N+](=O)[O-])cc1OC` (stereo not drawn), for which the TGI is more than 100 µM.

`C=C1CC(COc2cc(=O)oc3ccccc23)(c2ccccc2)OC1=O` (stereo not drawn): the TGI was 4.64 µM.

`O=C(O)CSc1nnc(COc2ccc(Cl)cc2)n1-c1ccccc1` returned a TGI of more than 100 µM.

As to `CN(C)CCCOc1nc2c(c(=O)n(C)c(=O)n2C)n1C` (tested in a mixture with another compound), the TGI was more than 100 µM.

As to `C[N+]1=C2[B-](C(C)(C)C)=[N+](C(C)(C)C)[B-]2(C(C)(C)C)[N+](C)=C2[B-](C(C)(C)C)=[N+](C(C)(C)C)[B-]21C(C)(C)C` (stereo not drawn), the TGI was more than 100 µM.

Take `Brc1ccc(CCNCCN2CCCCC2)cc1`: the TGI was determined as 48.1 µM.

Compound `OC1C2[C@@H](O)CCCN2C[C@@H](O)[C@H]1O` (stereo partly drawn) showed a TGI of more than 100 µM.

Take `COCOC1/C=C/CCCC#C[C@H](C)C(=O)CC1` (stereo partly drawn): the TGI is 22.3 µM.

Consider `COc1ccc2[nH]c(O)c(/C=c3/cc4c(c(-c5cc(OC)c(OC)c(OC)c5)n3)=Nc3ccccc3-4)c2c1`, for which the GI50 is 4.41 µM and the TGI is more than 100 µM.

`CC[C@]1(Cc2ccc(OC)c(OC)c2)CN(S(=O)(=O)c2ccc(C)cc2)C[C@@H]1OC(C)=O` returned a TGI of more than 100 µM.

With `CC(C)(C)c1ccc2c(c1)CNCCNCc1cc(C(C)(C)C)ccc1OCC1(CO2)COc2ccc(C(C)(C)C)cc2CNCCNCc2cc(C(C)(C)C)ccc2OC1`, the TGI stood at 2.93 µM.

Compound `NCC1CCN(c2nc3ccccc3c3c2CCCC3)CC1` had a TGI of 23.2 µM.

In the case of `CCN(CC)CCc1c2c(nc3ccccc13)C(=O)c1cccnc1C2=O`, the TGI was 3.69 µM.

Take `Cc1c(F)c(N)c2c(=O)cc(-c3ccc(NC(=O)CN(C)C)c(F)c3)oc2c1F`: the TGI was more than 92.5 µM.

Compound `COc1ccccc1Nc1nc(N)nc(N)c1N=O` gave a TGI of more than 100 µM.

On to `COc1cccc2c(N)c3cccc(C(=O)NCCN(C)C)c3nc12`, for which the TGI was 0.656 µM.

Take `O=C(CCCCCCCCC(=O)NN1C(=O)/C(=C\c2ccc(O)c(O)c2)SC1c1ccc(Cl)cc1)NN1C(=O)/C(=C\c2ccc(O)c(O)c2)SC1c1ccc(Cl)cc1` (stereo not drawn): the TGI was more than 100 µM.

`O=C1/C(=C/c2ccccc2)N=C(c2ccccc2)N1n1c(-c2ccccc2)nc2ccccc2c1=O` showed a TGI of more than 100 µM.

Regarding `Oc1ccc(/C=C/c2cc(O)cc(O)c2)cc1`, the TGI is more than 100 µM.

The compound `O=C(O)c1c2c(cc3c1CC1(Cc4ccccc4C1)C3)CCC2` gave a TGI of more than 100 µM.

`Cc1nc(-c2ccc([N+](=O)[O-])cc2)cn2c1nc1ccccc12` showed a TGI of more than 100 µM.

The values above are taken from PubChem BioAssay (NCI).
